Measured values from ChEMBL document CHEMBL1148088, “Vibrindole A, a metabolite of the marine bacterium, Vibrio parahaemolyticus, isolated from the toxic mucus of the boxfish Ostracion cubicus” (1994).

How the values were obtained:
Staphylococcus aureus = test: Antimicrobial activity against Staphylococcus aureus Sau1091-5 at 100 ug/disk; format: functional; settings: read-out: IZ
Staphylococcus [1] = test: Antimicrobial activity against Staphylococcus albus Sal1091-4 at 100 ug/disk; format: functional; settings: read-out: IZ
Bacillus subtilis = test: Antimicrobial activity against Bacillus subtilis Bs1091-1 at 100 ug/disk; format: functional; settings: read-out: IZ
Staphylococcus [2] = test: Antimicrobial activity against Staphylococcus albus Sal1091-4 at […]; format: functional, organism-based

Molecule | zone of inhibition at 100 µg/disc (Staphylococcus aureus) [mm] | zone of inhibition at 100 µg/disc (Staphylococcus [1]) [mm] | zone of inhibition at 100 µg/disc (Bacillus subtilis) [mm] | inhibition zone (IZ) (Staphylococcus [2]) [mm]
O=C1c2ccccc2NC1(c1c[nH]c2ccccc12)c1c[nH]c2ccccc12 | 11 |  |  | 
CC(c1c[nH]c2ccccc12)c1c[nH]c2ccccc12 [VIBRINDOLE A] | 11 | 11 | 7 | 
GENTAMICIN |  |  |  | 14
